Test results: patent US11242334B2, “Heterocyclic compounds as kinase inhibitors, compositions comprising the heterocyclic compound, and methods of use thereof” (JS INNOPHARM (SHANGHAI) LTD, priority 2017, dated 2022)
pIC50: −log10 of the molar value.

Tests used:
Colo205 cell line = assay: Colo205 cell proliferation assay (MTT assay, WST-8 readout); assay type: cell-based; conditions: IC50 values of growth inhibition in Colo 205 cells, 72 hours
Description: Compounds disclosed herein were tested for the inhibition of ERK2 by a Colo205 cell proliferation assay commonly known as MTT assay. In this assay, a complete media was prepared by adding 10% fetal bovine serum to RPMI-1640 medium (Life technology). Colon cancer cells (Colo205 cell line) were added to each of 88 wells of a 96 well plate at a seeding density of 5,000 cells/well/90 μL. The cells were allowed to attach to the plate by incubating at 37° C. for 24 hours. The compound was dissolved in DMSO (SIGMA). A solution of test compound was prepared in complete media by serial dilution to obtain the following concentrations: 500 μM, 150 μM, 50 μM, 15 μM, 5 μM, 1.5 μM, 0.5 μM, 0.15 μM and 0.05 μM. The test compound solution (10 μL) was added to each of 80 cell-containing wells. The final concentrations of the compound were following: 50 μM, 15 μM, 5 μM, 1.5 μM, 0.5 μM, 0.15 μM, 0.05 μM, 0.015 μM and 0.005 μM. The final concentration of DMSO is 0.5%. To the 8 remaining cell-containing wells, only complete media (containing 0.5% DMSO) was added to form a control group in order to measure maximal proliferation. To the remaining 8 empty wells, complete media was added to for a vehicle control group in order to measure background. The plates were incubated at 37° C. for 72 hours. 10 μL WST-8 solution (DOJINDO, Cell Counting KIT-8) was added to each well. The plates were further incubated at 37° C. for 2 hours, and then read for the absorbance using a microplate reader at 450 nm.
The IC50 values of growth inhibition in Colo 205 cells for Compounds disclosed are listed in Table 3, A′: ≤0.5 μM; B′: >0.5 μM and ≤1 μM; C′: >1.0 μM and ≤5 uM; D′: >5 μM.

human ERK2 = molecular target: T1, human ERK2 (Homo sapiens, UniProt P28482); assay: LanthaScreen TR-FRET enzymatic assay, ERK2; conditions: IC50 values of ERK2 biochemical activity; 5 μM ATP, 400 nM ATF2-GFP substrate
T1 construct: recombinantly expressed as GST-tagged full-length protein purified from E. coli; GST; purchased Invitrogen PV3311; host or cells: E. coli
T1 sequence (P28482 whole entry): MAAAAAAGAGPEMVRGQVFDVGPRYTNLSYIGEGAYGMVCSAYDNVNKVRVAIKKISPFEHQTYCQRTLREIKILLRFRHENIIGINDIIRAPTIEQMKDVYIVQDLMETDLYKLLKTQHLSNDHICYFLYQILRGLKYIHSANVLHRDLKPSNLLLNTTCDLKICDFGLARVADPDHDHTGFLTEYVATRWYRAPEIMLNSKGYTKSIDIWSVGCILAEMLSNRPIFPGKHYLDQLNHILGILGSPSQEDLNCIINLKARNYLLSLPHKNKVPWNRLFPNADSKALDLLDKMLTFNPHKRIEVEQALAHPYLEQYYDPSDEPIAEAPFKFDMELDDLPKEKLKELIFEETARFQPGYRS
Description: Compounds were tested in a LanthaScreen™ time-resolved fluorescence energy transfer (TR-FRET) enzymatic assay from Invitrogen. The assay used human ERK2 (Mitogen Activated Kinase 1, Invitrogen, Cat. PV3311) recombinantly expressed as GST-tagged full-length protein purified from E. coli and activated in vitro with MAP2K1. The substrate was a recombinant truncated version (residues 19-96) of ATF2 fused with Green Fluorescent Protein (Invitrogen, Cat. PV4445). Test compounds were prepared and diluted in DMSO in 3-fold serial dilutions to 100× of the final testing concentrations. The compounds were then further diluted to 4× by the kinase reaction buffer (Invitrogen, Cat. PV3189). The enzymatic reaction for compound testing was performed in a white 384-well polypropylene plate (Packard, Cat. 6005214) with a total reaction volume of 10 μl containing 20 ng/ml ERK2, 400 nM substrate, and 5 μM ATP that is around its Km. The assay started with loading 2.5 μl of ERK2 diluted in kinase reaction buffer to wells, followed by addition of equal volume of 4× compounds for 15-min incubation at the room temperature for pre-treatment. The enzymatic reaction was initiated by addition of 5 μl of mixture of the substrate and ATP prepared in kinase reaction buffer. After one hour reaction, 10 μl mixture of EDTA (final 10 mM) and terbium-labeled anti-pATF2 (pThr71) antibody (final 2 nM) (Invitrogen, Cat. PV4451) prepared in TR-FRET antibody dilution buffer (Invitrogen, Cat. PV3574) was added to stop the enzymatic reaction and produce TR-FRET signals. After 30 minutes of incubation at room temperature, the plate was read in Tecan Infinite F200 Pro with the following settings: Excitation 340 nm (30)/Emission1 495 nm (10)/Emission2 520 nm (25). The TR-FRET values were dimensionless numbers that were calculated as the ratio of the acceptor ([…]) signal to the donor (Terbium) signal. Percent of control was calculated as the percentage of compound-treated vs 1% DMSO vehicle-treated. The dose-response curves were generated and the ICsos were calculated by nonlinear sigmoid curve fitting using GraphPad Prism.
The IC50 values of ERK2 biochemical activity for the examples disclosed herein are listed in Table 3, A: ≤10 nM; B: >10 nM and ≤50 nM; C: >50 nM and ≤100 nM; D.>100 nM.

| Structure (SMILES) | pIC50 (Colo205 cell line; Homo sapiens) | pIC50 (human ERK2) | pIC50 (Colo205 cell line) |
| --- | --- | --- | --- |
| C[C@@H](c1cc(F)cc(Br)c1)n1ccc(-c2ccc3[nH]nc(-c4cnn(C)c4)c3c2)cc1=O (single isomer, unassigned) [Example 96A] | 5.30 to 6.00 | > 8.00 | – |
| C[C@H](c1cc(F)cc(Br)c1)n1ccc(-c2ccc3[nH]nc(-c4cnn(C)c4)c3c2)cc1=O (single isomer, unassigned) [Example 96B] | ≥ 6.30 | > 8.00 | – |
| Cc1cc(-c2n[nH]c3ccc(-c4ccn(CCN5CCOCC5)c(=O)c4)cc23)ccn1 [Example 54, 4-(3-(2-methylpyridin-4-yl)-1H-indazol-5-yl)-1-(2-morpholinoethyl)pyridin-2(1H)-one] | < 5.30 | – | – |
| O=c1cc(-c2ccc3[nH]nc(-c4ccc(F)cn4)c3c2)ccn1[C@H](CO)c1cc(F)cc(Br)c1 [Example 125, (S)-1-(1-(3-bromo-5-fluorophenyl)-2-hydroxyethyl)-4-(3-(5-fluoropyridin-2-yl)-1H-indazol-5-yl)pyridin-2(1H)-one] | 6.00 to 6.30 | – | – |
| O=c1cc(-c2ccc3[nH]nc(-c4ccc5ncnn5c4)c3c2)ccn1[C@H](CO)c1cc(F)cc(Br)c1 [Example 128, (S)-4-(3-([1,2,4]triazolo[1,5-a]pyridin-6-yl)-1H-indazol-5-yl)-1-(1-(3-bromo-5-fluorophenyl)-2-hydroxyethyl)pyridin-2(1H)-one] | ≥ 6.30 | – | – |
| O=c1cc(-c2ccc3[nH]nc(-c4ccc5nccn5c4)c3c2)ccn1[C@H](CO)c1cc(F)cc(Br)c1 [Example 129, (S)-1-(1-(3-bromo-5-fluorophenyl)-2-hydroxyethyl)-4-(3-(imidazo[1,2-a]pyridin-6-yl)-1H-indazol-5-yl)pyridin-2(1H)-one] | ≥ 6.30 | – | – |
| Cc1nc2ccc(-c3n[nH]c4ccc(-c5ccn([C@H](CO)c6cc(F)cc(Br)c6)c(=O)c5)cc34)cn2n1 [Example 130, (S)-1-(1-(3-bromo-5-fluorophenyl)-2-hydroxyethyl)-4-(3-(2-methyl-[1,2,4]triazolo[1,5-a]pyridin-6-yl)-1H-indazol-5-yl)pyridin-2(1H)-one] | ≥ 6.30 | – | – |
| Cc1nn(C)cc1-c1n[nH]c2ccc(-c3ccn([C@H](CO)c4cc(F)cc(Br)c4)c(=O)c3)cc12 [Example 138, (S)-1-(1-(3-bromo-5-fluorophenyl)-2-hydroxyethyl)-4-(3-(1,3-dimethyl-1H-pyrazol-4-yl)-1H-indazol-5-yl)pyridin-2(1H)-one] | 6.00 to 6.30 | – | – |
| CNc1n[nH]c2ccc(-c3ccn([C@H](CO)c4cc(F)cc(Br)c4)c(=O)c3)cc12 [Example 141, (S)-1-(1-(3-bromo-5-fluorophenyl)-2-hydroxyethyl)-4-(3-(methylamino)-1H-indazol-5-yl)pyridin-2(1H)-one] | 5.30 to 6.00 | – | – |
| O=c1cc(-c2ccc3[nH]nc(C4CCOC4)c3c2)ccn1[C@H](CO)c1cc(F)cc(Br)c1 (stereo partly drawn) [Example 150, 1-((S)-1-(3-bromo-5-fluorophenyl)-2-hydroxyethyl)-4-(3-(tetrahydrofuran-3-yl)-1H-indazol-5-yl)pyridin-2(1H)-one] | 5.30 to 6.00 | – | – |
| O=c1cc(-c2ccc3[nH]nc(N4CCC(O)C4)c3c2)ccn1[C@H](CO)c1cc(F)cc(Br)c1 (stereo partly drawn) [Example 151, 1-((S)-1-(3-bromo-5-fluorophenyl)-2-hydroxyethyl)-4-(3-(3-hydroxypyrrolidin-1-yl)-1H-indazol-5-yl)pyridin-2(1H)-one] | 5.30 to 6.00 | – | – |

The next lines start with the values.

| pIC50 (Colo205 cell line; Homo sapiens) | pIC50 (human ERK2) | pIC50 (Colo205 cell line) | Structure (SMILES) |
| --- | --- | --- | --- |
| ≥ 6.30 | – | – | Cc1cc(-c2n[nH]c3ccc(-c4ccn([C@H](C)c5ccnc(C(F)(F)F)c5)c(=O)c4)cc23)ccn1 (single isomer, unassigned) [Example 142B] |
| ≥ 6.30 | > 8.00 | – | Cc1cc(-c2n[nH]c3ccc(-c4ccn([C@H](CO)c5cccc(Cl)c5)c(=O)c4)cc23)ccn1 [Example 1, (S)-1-(1-(3-chlorophenyl)-2-hydroxyethyl)-4-(3-(2-methyl-pyridin-4-yl)-1H-indazol-5-yl)pyridin-2(1H)-one] |
| < 5.30 | – | – | O=c1cc(-c2ccc3[nH]nc(-c4ccnc(C(F)(F)F)c4)c3c2)ccn1Cc1ccnc(C(F)(F)F)c1 [Example 126, 4-(3-(2-(trifluoromethyl)pyridin-4-yl)-1H-indazol-5-yl)-1-((2-(trifluoromethyl)pyridin-4-yl)methyl)pyridin-2(1H)-one] |
| 5.30 to 6.00 | – | – | Cc1cc(Cn2ccc(-c3ccc4[nH]nc(-c5ccnc(C)c5)c4c3)cc2=O)ccn1 [Example 127, 4-(3-(2-methylpyridin-4-yl)-1H-indazol-5-yl)-1-((2-methylpyridin-4-yl)methyl)pyridin-2(1H)-one] |
| 5.30 to 6.00 | – | – | Cc1cc(-c2n[nH]c3ccc(-c4ccn(Cc5ccc(C(F)(F)F)nc5)c(=O)c4)cc23)ccn1 [Example 131, 4-(3-(2-methylpyridin-4-yl)-1H-indazol-5-yl)-1-((6-(trifluoromethyl)pyridin-3-yl)methyl)pyridin-2(1H)-one] |
| 5.30 to 6.00 | – | – | CCc1cc(-c2n[nH]c3ccc(-c4ccn(Cc5ccnc(C(F)(F)F)c5)c(=O)c4)cc23)ccn1 [Example 132, 4-(3-(2-ethylpyridin-4-yl)-1H-indazol-5-yl)-1-((2-(trifluoromethyl)pyridin-4-yl)methyl)pyridin-2(1H)-one] |
| 5.30 to 6.00 | – | – | O=c1cc(-c2ccc3[nH]nc(-c4ccnc(C5CC5)c4)c3c2)ccn1Cc1ccnc(C(F)(F)F)c1 [Example 133, 4-(3-(2-cyclopropylpyridin-4-yl)-1H-indazol-5-yl)-1-((2-(trifluoromethyl)pyridin-4-yl)methyl)pyridin-2(1H)-one] |
| 5.30 to 6.00 | – | – | Cc1cc(-c2n[nH]c3ccc(-c4ccn([C@H](CO)c5ccnc(C(F)(F)F)c5)c(=O)c4)cc23)ccn1 [Example 134, (S)-1-(2-hydroxy-1-(2-(trifluoromethyl)pyridin-4-yl)ethyl)-4-(3-(2-methylpyridin-4-yl)-1H-indazol-5-yl)pyridin-2(1H)-one] |
| 5.30 to 6.00 | – | – | Cc1cc(-c2n[nH]c3ccc(-c4ccn(Cc5nc(C(F)(F)F)cs5)c(=O)c4)cc23)ccn1 [Example 135] |
| 5.30 to 6.00 | – | – | Cc1cc(-c2n[nH]c3ccc(-c4ccn(Cc5cccnc5C(F)(F)F)c(=O)c4)cc23)ccn1 [Example 136, 4-(3-(2-methylpyridin-4-yl)-1H-indazol-5-yl)-1-((2-(trifluoromethyl)pyridin-3-yl)methyl)pyridin-2(1H)-one] |
| 6.00 to 6.30 | – | – | Cc1cc(-c2n[nH]c3ccc(-c4ccn(Cc5cccc(C(F)(F)F)n5)c(=O)c4)cc23)ccn1 [Example 137, 4-(3-(2-methylpyridin-4-yl)-1H-indazol-5-yl)-1-((6-(trifluoromethyl)pyridin-2-yl)methyl)pyridin-2(1H)-one] |
| 5.30 to 6.00 | – | – | Cc1cc(-c2n[nH]c3ccc(-c4ccn(Cc5cc(C(F)(F)F)no5)c(=O)c4)cc23)ccn1 [Example 139, 4-(3-(2-methylpyridin-4-yl)-1H-indazol-5-yl)-1-((3-(trifluoromethyl)isoxazol-5-yl)methyl)pyridin-2(1H)-one] |
| – | – | 5.30 to 6.00 | Cc1cc(-c2n[nH]c3ccc(-c4ccn([C@@H](C)c5ccnc(C(F)(F)F)c5)c(=O)c4)cc23)ccn1 [Example 142A, (S)-4-(3-(2-methylpyridin-4-yl)-1H-indazol-5-yl)-1-(1-(2-(trifluoromethyl)pyridin-4-v1)ethyl)pyridin-2(1H)-one] |
